# Results as given in patent US20240216319A1, “TUMOR SUPPRESSANT AND PAIN RELIEF COMPOSITION FOR ORAL ADMINISTRATION” (priority 2022, published 2024).
# Tested on: bladder cancer
# Settings: bladder cancer subject on chemotherapy
structure (smiles),measurement,setting,value
C=C(C)[C@H]1CC=C(C)CC1 [d-limonene],reduction of tumor size at subsequent surgical procedure,"earlier tumors 3 cm to 5 cm, then millimeter-sized",about 10 foled
same,tumor morphology at subsequent surgical procedure,tumors still present,ill-defined and amorphous
